Tests used:
[1] = system: rat hepatic microsomal PTPases; details: PTPase activity, compound at 50 μM
Human recombinant PTP1B = biological target: T1, Human recombinant PTP1B (Homo sapiens, UniProt P18031); format: biochemical; details: read-out: IC50
T1 construct: made in house
T1 sequence (P18031 1-435): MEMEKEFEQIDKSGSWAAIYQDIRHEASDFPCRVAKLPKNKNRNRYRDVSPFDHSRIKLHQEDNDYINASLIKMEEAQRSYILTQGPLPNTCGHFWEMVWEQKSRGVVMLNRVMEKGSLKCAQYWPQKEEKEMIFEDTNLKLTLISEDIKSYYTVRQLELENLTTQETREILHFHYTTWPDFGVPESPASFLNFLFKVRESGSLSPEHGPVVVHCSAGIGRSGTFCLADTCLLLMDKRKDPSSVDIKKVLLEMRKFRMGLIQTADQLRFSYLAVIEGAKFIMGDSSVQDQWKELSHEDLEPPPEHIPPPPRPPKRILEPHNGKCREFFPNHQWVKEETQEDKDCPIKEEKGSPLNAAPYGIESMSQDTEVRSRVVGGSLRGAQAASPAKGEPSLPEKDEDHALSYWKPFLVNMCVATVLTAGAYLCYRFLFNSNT

| Compound | % Change from Control [1] [%] | IC50 (Human recombinant PTP1B) [µM] |
| --- | --- | --- |
| COc1ccc(C(=O)c2c(Cc3ccccc3)sc3ccccc23)cc1 [Example 7, (2-Benzyl-benzo[b]thiophen-3-yl)-(4-methoxy-phenyl)-methanone] | 1.03 | – |
| Oc1ccc(-c2c3ccccc3cc3sc4ccccc4c23)cc1 [Example 14, 4-Benzo[b]naphtho[2,3-d]thiophen-11-yl-phenol] | -34.19 | – |
| Oc1ccc(-c2c3ccccc3cc3sc4cc(O)ccc4c23)cc1 [Example 15, 11-(4-Hydroxy-phenyl)-benzo[b]naphtho[2,3-d]thiophen-3-ol] | -43.68 | – |
| Oc1ccc(-c2c3ccc(O)cc3cc3sc4ccccc4c23)cc1 [Example 20, 11-(4-Hydroxy-phenyl)-benzo[b]naphtho[2,3-d]thiophen-8-ol] | -26.86 | – |
| COc1c(Br)cc(-c2c3ccccc3c(Br)c3sc4ccccc4c23)cc1Br [Example 22] | -16.83 | – |
| COc1ccc(-c2c3ccccc3cc3sc4ccccc4c23)cc1 [Example 23, 11-(4-Methoxy-phenyl)-benzo[b]naphtho[2,3-d]thiophene] | -8.92 | – |
| COc1c(C)cc(-c2c3ccccc3c(C)c3sc4ccccc4c23)cc1C [Example 24, 11-(4-Methoxy-3,5-dimethyl-phenyl)-6-methyl-benzo[b]naphtho[2,3-d]thiophene] | 3.16 | – |
| Cc1cc(-c2c3ccccc3c(C)c3sc4ccccc4c23)cc(C)c1O [Example 25, 2,6-Dimethyl-4-(6-methyl-benzo[b]naphtho[2,3-d]thiophen-11-yl)-phenol] | -38.31 | – |
| Oc1c(I)cc(-c2c3ccccc3cc3sc4ccccc4c23)cc1I [Example 26, 4-(Benzo[b]naphtho[2,3-d]thiophen-11-yl)-2,6-diiodo-phenol] | -8.68 | – |
| Oc1ccc(-c2c3ccccc3cc3sc4ccccc4c23)cc1I [Example 27, 4-(Benzo[b]naphtho[2,3-d]thiophen-11-yl)-2-iodo-phenol] | -35.78 | – |
| COc1c(C#N)cc(-c2c3ccccc3cc3sc4ccccc4c23)cc1C#N [Example 30, 5-Benzo[b]naphtho[2,3-d]thiophen-11-yl-2-methoxy-isophthalonitrile] | 1.00 | – |
| N#Cc1cc(-c2c3ccccc3cc3sc4ccccc4c23)cc(C#N)c1O [Example 32, 5-Benzo[b]naphtho[2,3-d]thiophen-11-yl-2-hydroxy-isophthalonitrile] | -58.12 | – |
| CC(=O)Oc1ccc(-c2c3ccccc3cc3sc4ccccc4c23)cc1 [Example 34, 4-(Benzo[b]naphtho[2,3-d]thiophen-11-yl-phenol)acetate ester] | -3.40 | – |
| CS(=O)(=O)Oc1ccc(-c2c3ccccc3c(I)c3sc4ccccc4c23)cc1 [Example 47, Methanesulfonic acid 4-(6-Iodo-benzo[b]naphtho[2,3-d]thiophen-11-yl)-phenylester] | -3.50 | – |
| Oc1c(Br)cc(-c2c3ccccc3c(C(F)(F)F)c3sc4ccccc4c23)cc1Br [Example 61, 2,6-Dibromo-4-(6-trifluoromethyl-benzo[b]naphtho[2,3-d]thiophen-11-yl)-phenol] | -54.82 | – |
| O=C(O)COc1ccc(-c2c3ccccc3cc3sc4cc(OCC(=O)O)ccc4c23)cc1 [Example 74, [11-(4-Carboxymethoxy-phenyl)-benzo[b]naphtho[2,3-d]thiophen-3-yloxy]-acetic acid] | -21.61 | – |
| O=C(O)COc1ccc(-c2c3ccc(OCC(=O)O)cc3cc3sc4ccccc4c23)cc1 [Example 76, [11-(4-Carboxymethoxy-phenyl)-benzo[b]naphtho[2.3-d]thiophen-8-yloxy]-acetic acid] | -18.89 | – |
| O=C(O)COc1c(I)cc(-c2c3ccccc3cc3sc4ccccc4c23)cc1I [Example 83, (4-Benzo[b]naphtho[2,3-d]thiophen-11-yl-2,6-diiodo-phenoxy)-acetic acid] | -57.89 | – |
| O=C(O)COc1ccc(-c2c3ccccc3cc3sc4ccccc4c23)cc1 [Example 84, [4-Benzo[b]naphtho[2,3-d]thiophen-11-yl-phenoxy]-acetic acid] | -73.91 | – |
| O=C(O)COc1ccc(-c2c3ccccc3cc3sc4ccccc4c23)cc1I [Example 85, (4-Benzo[b]naphtho[2,3-d]thiophen-11-yl-2-iodo-phenoxy)-acetic acid] | -71.67 | – |
| Cc1cc(-c2c3ccccc3c(C)c3sc4ccccc4c23)cc(C)c1OCC(=O)O [Example 86, {2,6-Dimethyl-4-[6-methyl-(benzo[b]naphtho[2,3-d]thiophen-11-yl)]-phenoxy}-acetic acid] | -69.35 | – |
| N#Cc1c2ccccc2c(-c2cc(Br)c(OCC(=O)O)c(Br)c2)c2c1sc1ccccc12 [Example 88] | -67.03 | – |

| Compound | % Change from Control [1] [%] | IC50 (Human recombinant PTP1B) [µM] |
| --- | --- | --- |
| O=C(O)COc1cccc(-c2c3ccccc3c(Br)c3sc4ccccc4c23)c1 [Example 90, [3-(6-Bromo-benzo[b]naphtho[2,3-d]thiophen-11-yl)-phenoxyl]-acetic acid] | -79.04 | – |
| O=C(O)COc1ccc(-c2c3ccccc3c(Br)c3sc4ccccc4c23)cc1OCC(=O)O [Example 93] | -58.35 | – |
| O=C(O)COc1cc(-c2c3ccccc3c(Br)c3sc4ccccc4c23)cc(Br)c1OCC(=O)O [Example 94] | -95.80 | – |
| O=C(O)COc1cc(Br)c(-c2c3ccccc3c(Br)c3sc4ccccc4c23)cc1OCC(=O)O [Example 95] | -75.45 | – |
| O=C(O)COc1ccc2c(c1)sc1cc3ccccc3c(-c3ccc(O[C@H](Cc4ccccc4)C(=O)O)cc3)c12 [Example 119] | -75.29 | – |
| O=C(O)[C@@H](CCN1C(=O)c2ccccc2C1=O)Oc1c(Br)cc(-c2c3ccccc3c(Br)c3sc4ccccc4c23)cc1Br [Example 147, (R)-2-[2,6-Dibromo-4-(6-bromo-benzo[b]naphtho[2,3-d]thiophen-11-yl)-phenoxy]-4-(1,3-dioxo-1,3-dihydro-isoindol-2-yl)-butyric acid] | -66.60 | – |
| O=C(O)COc1ccc2c(c1)sc1cc3ccccc3c(-c3ccc(O[C@H](CCN4C(=O)c5ccccc5C4=O)C(=O)O)cc3)c12 [Example 149] | -59.82 | – |
| CCOP(=O)(OCC)C(CCc1ccccc1)Oc1c(Br)cc(-c2c3ccccc3c(Br)c3sc4ccccc4c23)cc1Br (stereo not shown) [Example 161, {1-2,6-Dibromo-4-(6-bromo-benzo[b]naphtho[2,3-d]thiophen-11-yl)-phenoxyl-3-phenyl-propyl}-phosphonic acid, diethyl ester] | -8.03 | – |
| O=P(O)(O)COc1ccc(-c2c3ccccc3cc3sc4ccccc4c23)cc1 [Example 163, [4-(Benzo[b]naphtho[2,3-d]thiophen-11-yl)-phenoxymethyl]-phosphonic acid] | -38.40 | – |
| O=P(O)(O)C(CCc1ccccc1)Oc1c(Br)cc(-c2c3ccccc3c(Br)c3sc4ccccc4c23)cc1Br (stereo not shown) [Example 164] | -70.32 | – |
| O=C(NO)[C@@H](Cc1ccccc1)Oc1c(Br)cc(-c2c3ccccc3c(Br)c3sc4ccccc4c23)cc1Br [Example 167] | -16.99 | – |
| BrC[C@@H](Cc1ccccc1)Oc1c(Br)cc(-c2c3ccccc3c(Br)c3sc4ccccc4c23)cc1Br [Example 174, (R)-6-Bromo-11-[3,5-dibromo-4-(1-bromomethyl-2-phenyl-ethoxy)-phenyl]-benzo[b]naphtho[2,3-d]thiophene] | 0.39 | – |
| O=C1NC(=O)C(Oc2c(Br)cc(-c3c4ccccc4c(Br)c4sc5ccccc5c34)cc2Br)S1 (stereo not shown) [Example 175, 5-[2,6-Dibromo-4-(6-bromo-benzo[b]naphtho[2,3-d]thiophen-11-yl)-phenoxy]-thiazolidinedione-2.4-dione] | -69.20 | – |
| O=C(O)COc1c2ccccc2c(-c2cc(Br)c(O[C@H](Cc3ccccc3)C(=O)O)c(Br)c2)c2c1sc1ccccc12 [Example 185] | -98.45 | – |
| O=C(O)COc1c(Br)cc(-c2c3c(c(Br)c4ccccc24)S(=O)(=O)c2ccccc2-3)cc1Br [Example 186] | -74.87 | – |
| O=C(O)COc1c(Br)cc(-c2c3ccccc3c(Br)c3c2c2ccccc2[s+]3[O-])cc1Br (stereo not shown) [Example 187] | -57.64 | – |
| Oc1c(-c2ccccc2)cc(-c2c3ccccc3cc3sc4ccccc4c23)cc1-c1ccccc1 [Example 190, 5'-Benzo[b]naphtho[2,3-d]thiophen-11-yl-[1,1':3', 1.increment.]terphenyl-2'-ol] | – | 2 |
| O=C(O)COc1c(F)ccc(-c2c3ccccc3c(Br)c3sc4ccccc4c23)c1F [Example 201, [3-(6-Bromo-benzo[b]naphtho[2,3-d]thiophen-11-yl)-2.6-difluoro-phenoxy]-acetic acid] | -75.75 | – |
| Oc1c(Br)cc(-c2c3ccccc3c(Br)c3oc4ccccc4c23)c(O)c1Br [Example 211, 2,6-Dibromo-4-(6-bromo-benzo[b]naphtho[2,3-d]furan-11-yl)-3-hydroxy-phenol] | -36.82 | – |
| O=C(O)COc1ccc(-c2c3ccccc3cc3oc4ccccc4c23)cc1 [Example 213, 4-(Benzo[b]naphtho[2,3-d]furan-11-yl-phenoxy)-acetic acid] | -54.40 | – |
| O=C(O)COc1c(Br)cc(-c2c3ccccc3c(Br)c3oc4ccccc4c23)c(O)c1Br [Example 217] | -80.42 | – |

Reference: US6110962A, “11-aryl-benzo[B]naphtho[2,3-D]furans and 11-aryl-benzo[B]naphtho[2,3-D]thiophenes useful in the treatment of insulin resistance and hyperglycemia” (American Home Products Corporation, priority 1999, dated 2000)
